We go through one substance from ChEMBL document CHEMBL1275415, “The antimicrobial peptide NK-2, the core region of mammalian NK-lysin, kills intraerythrocytic Plasmodium falciparum” (Antimicrob Agents Chemother, 2008).

The source made the active and inactive calls. The rule behind the calls is not given here.

Series [1] is described as follows: Cytotoxicity against human RBC assessed as induction of hemolysis at 5 to 20 uM after 2 hrs by spectrophotometry. In kind it is cell-based. The following applies: erythrocyte.
Series [2] has as its system Plasmodium falciparum. The series can be described thus: Antiplasmodial activity against Plasmodium falciparum 3D7 trophozoites infected in human RBC assessed as induction of hemolysis at 5 to 20 uM after 2 hrs by spectrophotometry. In kind it is functional, organism-based.
The subject of series [3] is Plasmodium falciparum. The series can be described thus: Antiplasmodial activity against Plasmodium falciparum 3D7 schizonts infected in human RBC assessed as induction of hemolysis at 5 to 20 uM after 2 hrs by spectrophotometry. Format: functional, organism-based.
In series [4] the test system is Plasmodium falciparum. In words: Antiplasmodial activity against Plasmodium falciparum 3D7 trophozoite infected in human RBC assessed as partial induction of hemolysis at 0.1 to 100 uM after 1 hrs by spectrophotometry in presence of 100 ug/ml annexin V and calcium. Format: functional, organism-based.
In series [5] the test system is Plasmodium falciparum. The series can be described thus: Antiplasmodial activity against Plasmodium falciparum 3D7 infected in human RBC assessed as permeabilization of plasma membrane at 10 uM after 20 to 120 min by sytox green dye uptake assay. Format: functional, organism-based.
Series [6] has as its system Plasmodium falciparum. The series can be described thus: Antiplasmodial activity against Plasmodium falciparum 3D7 infected in human RBC assessed as appearance of hemozoin crystals at 10 uM after 1 hrs by light microscopy. In kind it is functional, organism-based.
The subject of series [7] is Plasmodium falciparum. The series can be described thus: Antiplasmodial activity against Plasmodium falciparum 3D7 trophozoites infected in human RBC assessed as induction of hemolysis at 10 uM after 90 min by spectrophotometry. In kind it is functional, organism-based.
Series [8] concerns Plasmodium falciparum. In words: Antiplasmodial activity against Plasmodium falciparum 3D7 infected in human RBC assessed as permeabilization of plasma membrane at 5 uM after 20 to 120 min by sytox green dye uptake assay. In kind it is functional, organism-based.
For series [9], the system named is Plasmodium falciparum. In words: Antiplasmodial activity against Plasmodium falciparum 3D7 assessed as reduction in parasite viability after 45 hrs by fluorospectrometry. Format: functional, organism-based.
Series [10] concerns Plasmodium falciparum. The series can be described thus: Antiplasmodial activity against Plasmodium falciparum 3D7 trophozoite infected in human RBC assessed as partial induction of hemolysis at 0.1 to 100 uM after 1 hrs by spectrophotometry in presence of > 100 ug/ml annexin V and calcium. In kind it is functional, organism-based.
Series [11] has as its system Plasmodium falciparum. The series can be described thus: Antiplasmodial activity against Plasmodium falciparum 3D7 assessed as reduction in parasite viability at 6.2 uM after 45 hrs by fluorospectrometry. In kind it is functional. The following applies: 3D7, 45 h.
Series [12] has as its system Plasmodium falciparum. In words: Antiplasmodial activity against Plasmodium falciparum 3D7 infected in human RBC assessed as permeabilization of plasma membrane at > 20 uM after 20 to 120 min by sytox green dye uptake assay. Format: functional, organism-based.

A word on the inhibition: it is the drop in the measured response relative to a control, in per cent. H-KILRGVCKKIMRTFLRRISKDILTGKK-OH: the Activity entry in series [1] is “Non-toxic”. The result in the series with Plasmodium falciparum [2], in the series on Plasmodium falciparum [3], with Plasmodium falciparum [4], with Plasmodium falciparum [5], in the series on Plasmodium falciparum [6] and in the series with Plasmodium falciparum [7] was Active. Besides, the outcome in the series on Plasmodium falciparum [8] was Active. In addition, the inhibition entry in the series on Plasmodium falciparum [9] was “Dose-dependent effect”. Further, the outcome in the series on Plasmodium falciparum [10] and with Plasmodium falciparum [12] was inactive. For the same substance, the inhibition at 6.2 µM in the series with Plasmodium falciparum [11] was determined as 50%.
